# According to patent publication US20120277209A1, “PYRAZINE COMPOUNDS AS PHOSPHODIESTERASE 10 INHIBITORS” (Amgen Inc., priority 2009, published 2012):
# Molecular target: PDE10 (UniProt Q9Y233)
# Assay: PDE10 enzyme inhibition, IMAP TR-FRET assay (MPDE10A7 Enzyme Activity and Inhibition)
# Type: biochemical
# Conditions: IC50 class against PDE10; read-out: IC50
# Summary of the method: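 PDE10A enzyme or tissue homogenate preincubated with compounds 30 min at room temperature, then fluorescein-labelled cAMP or cGMP added for 60 min. IMAP binding reagent stop, TR-FRET read. Values are mean IC50s, grouped into five potency classes.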
row,Compound,IC50 [nM]
1,"Cc1nc2c([nH]1)CCN(c1nccnc1Oc1ccc(Nc3nc4ccccc4s3)cc1)C2 [Example 82, N-(4-(3-(2-methyl-6,7-dihydro-1H-imidazo[4,5-c]pyridin-5(4H)-yl)pyrazin-2-yloxy)phenyl)benzo-[d]thiazol-2-amine]",100 to 250
2,"Fc1ccc2[nH]c(Nc3ccc(Oc4nccnc4N4CCOCC4)cc3)nc2c1 [Example 64, 5-fluoro-N-(4-(3-morpholinopyrazin-2-yloxy)phenyl)-1H-benzo[d]imidazol-2-amine]",25 to 100
3,"CC(=O)N1CC=C(c2nccnc2Oc2ccc(C(=O)c3nc4ccccc4[nH]3)cc2)CC1 [Example 133, 1-(4-(3-(4-(1H-benzo[d]imidazole-2-carbonyl)phenoxy)pyrazin-2-yl)-5,6-dihydropyridin-1(2H)-yl)ethanone]",< 25
4,"COc1cc(-c2nccnc2Oc2ccc(Nc3nc4ccccc4s3)cc2)ccn1 [Example 152, N-(4-(3-(2-methoxypyridin-4-yl)pyrazin-2-yloxy)phenyl)benzo[d]thiazol-2-amine]",< 25
5,"CC(=O)N1CCC(c2nccnc2Oc2ccc(C(=O)c3nc4ccccc4n3C)cc2)CC1 [Example 242, 1-(4-(3-(4-(1-methyl-1H-benzo[d]imidazole-2-carbonyl)phenoxy)pyrazin-2-yl)piperidin-1-yl)ethanone]",< 25
6,"Cc1ncccc1-c1nccnc1Oc1ccc(C(=O)c2nc3ccccc3n2C)cc1 [Example 110, (1-methyl-1H-benzo[d]imidazol-2-yl)(4-(3-(2-methylpyridin-3-yl)pyrazin-2-yloxy)phenyl)methanone]",25 to 100
7,"FC(F)(c1ccc(Oc2nccnc2N2CCOCC2)cc1)c1nc2ccccc2[nH]1 [Example 7, 4-(3-(4-((1H-BENZO[D]IMIDAZOL-2-YL)DIFLUOROMETHYL)PHENOXY)PYRAZIN-2-YL)MORPHOLINE]",100 to 250

# Now from value to compound:
row,IC50 [nM],Compound
1,100 to 250,"CC#CCOc1nccnc1Oc1ccc(C(=O)c2nc3ccccc3[nH]2)cc1 [Example 169, (1H-benzo[d]imidazol-2-yl)(4-(3-(but-2-ynyloxy)pyrazin-2-yloxy)phenyl)methanone]"
2,250 to 1000,"COCCOc1nccnc1Oc1ccc(C(=O)c2nc3ccccc3[nH]2)cc1 [Example 165, (1H-benzo[d]imidazol-2-yl)(4-(3-(2-methoxyethoxy)pyrazin-2-yloxy)phenyl)methanone]"
3,< 25,"C[C@]1(O)CC[C@H](c2nccnc2Oc2ccc(C(=O)c3nc4ccccc4[nH]3)cc2)CC1 [Example 197, (1H-benzo[d]imidazol-2-yl)(4-(3-((1R,4R)-4-hydroxy-4-methylcyclohexyl)pyrazin-2-yloxy)phenyl)methanone]"
4,< 25,"O=C(c1ccc(Oc2nccnc2-c2ccc[nH]c2=O)cc1)c1nc2ccccc2[nH]1 [Example 106, 3-(3-(4-(1H-BENZO[D]IMIDAZOLE-2-CARBONYL)PHENOXY)PYRAZIN-2-YL)PYRIDIN-2(1H)-ONE]"

# Same assay, conditions: PDE10 enzyme inhibition; average IC50 data for each compound; read-out: Average IC50
row,Compound,IC50 [nM]
1,CC(=O)N1CCC(c2nccnc2Oc2ccc(Nc3nc4ccccc4s3)nc2)CC1 [drawing 992],0.59
2,OCC1CCCCN1c1nccnc1Oc1ccc(Nc2nc3ccccc3s2)cc1 (centres unmarked) [drawing 730],21.7
3,O=C(c1ccc(Oc2nccnc2C(=O)NCCc2ccccc2)cc1)c1nc2ccccc2[nH]1 [drawing 827],4.47
4,COC[C@@H]1CCN(c2nccnc2Oc2ccc(Nc3nc4ccccc4s3)cc2)C1 (stereo in doubt),22.6

# Second part, the compound after the results:
row,IC50 [nM],Compound
1,29.1,COCCOc1nccnc1Oc1ccc(C(=O)c2nc3ccccc3[nH]2)cc1 [drawing 848]
2,2.57,C[C@@H]1CN(c2nccnc2Oc2ccc(C(=O)c3nc4ccccc4[nH]3)cc2)CC(=O)N1 (stereo in doubt)
3,1.86,Cc1ncsc1CCOc1nccnc1Oc1ccc(C(=O)c2nc3ccccc3[nH]2)cc1 [drawing 853]
4,1.16,CC(=O)N1CC=C(c2nccnc2Oc2ccc(C(=O)c3nc4ccccc4[nH]3)cc2)CC1 [drawing 751]

# Same assay, conditions: PDE10 enzyme inhibition; chiral compounds separated from racemic mixtures; read-out: IC50
row,IC50 [nM],Compound
1,< 25,"O=C1CCC[C@H](c2nccnc2Oc2ccc(Nc3nc4ccccc4s3)cc2)C1 [Example 282, (S)-3-(3-(4-(benzo[d]thiazol-2-ylamino)phenoxy)pyrazin-2-yl)cyclohexanone]"
